Each compound was assayed against MYT1 protein (Homo sapiens (Human), UniProt Q99640) (assay: Test for binding to ATP binding site of MYT1 (Kinase Tracer 178 / Eu-Anti-GST antibody TR-FRET)). Conditions: ATP binding site of MYT1, 30 minutes at room temperature.
MYT1 protein, sequence (Q99640 whole entry): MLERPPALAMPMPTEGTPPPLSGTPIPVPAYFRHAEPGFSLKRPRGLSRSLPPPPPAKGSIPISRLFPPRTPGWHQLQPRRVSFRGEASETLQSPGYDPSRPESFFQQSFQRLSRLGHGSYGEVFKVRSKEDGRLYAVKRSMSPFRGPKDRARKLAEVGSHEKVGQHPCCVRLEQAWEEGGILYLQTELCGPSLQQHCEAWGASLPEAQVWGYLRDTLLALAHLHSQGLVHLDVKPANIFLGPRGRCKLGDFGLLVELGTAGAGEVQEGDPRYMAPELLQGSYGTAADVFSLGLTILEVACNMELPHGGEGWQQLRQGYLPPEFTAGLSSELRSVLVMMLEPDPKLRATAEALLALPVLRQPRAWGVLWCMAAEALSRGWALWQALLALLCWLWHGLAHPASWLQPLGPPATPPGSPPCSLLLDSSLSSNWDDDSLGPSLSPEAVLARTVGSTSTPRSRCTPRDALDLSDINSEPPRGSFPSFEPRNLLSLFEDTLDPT
Protocol: The binding capacity of each compound to the ATP binding site of MYT1 Kinase protein was evaluated. 5× Kinase Buffer A (manufactured by Thermo Fisher Scientific Inc., PV3189) was diluted to 5 times with Milli-Q water, thereby preparing 1× Kinase Buffer. Using 1× Kinase Buffer, MYT1 protein (manufactured by Carna Biosciences, Inc.) was diluted to a concentration of 0.005 μM and Eu-Anti-GST Antibody was diluted to a concentration of 1 μM. […] To a 96 well-plate, 2.5 μL of a compound diluted with DMSO was added. […] The mixture was well mixed and then allowed to stand at room temperature for 30 minutes. Thereafter, fluorescence wavelengths of 665 nm and 615 nm generated by irradiation with excitation light of 340 nm were detected using Envision (manufactured by PerkinElmer). The proportion of Tracer bound to MYT1 protein was calculated for every condition by dividing the intensity at the fluorescence wavelength of 665 nm by the intensity at the fluorescence wavelength of 615 nm.
In the case of Nc1c(-c2c(F)ccc3[nH]ncc23)c2cc(C3CC3)c3ncccc3c2[nH]c1=O (atropisomer, axis not shown) [Compound C157, (R)-3-amino-6-cyclopropyl-4-(5-fluoro-1H-indazol-4-yl)-1H-1,7-phenanthrolin-2-one], the IC50 is reported as 310 nM. Nc1c(-c2c(F)ccc3[nH]ncc23)c2cc(C3CC3)c3ncccc3c2[nH]c1=O (atropisomer, axis not shown) [Compound C158, (S)-3-amino-6-cyclopropyl-4-(5-fluoro-1H-indazol-4-yl)-1H-1,7-phenanthrolin-2-one] gave an IC50 of 1.9 nM. In the case of CC(C)Oc1cc2c(-c3ccc(Cl)c4[nH]ncc34)c(N)c(=O)[nH]c2cc1F [Compound A1, 3-Amino-4-(7-chloro-1H-indazol-4-yl)-7-fluoro-6-propan-2-yloxy-1H-quinolin-2-one], the IC50 is reported as 29 nM. Compound Nc1c(-c2ccc(Cl)c3[nH]ncc23)c2cc(OCCC(F)F)c(F)cc2[nH]c1=O [Compound A2, 3-Amino-4-(7-chloro-1H-indazol-4-yl)-6-(3,3-difluoropropoxy)-7-fluoro-1H-quinolin-2-one] has an IC50 of 9.3 nM. In the case of Nc1c(-c2ccc(Cl)c3[nH]ncc23)c2cc(OCC3CC3)c(F)cc2[nH]c1=O [Compound A3, 3-Amino-4-(7-chloro-1H-indazol-4-yl)-6-(cyclopropylmethoxy)-7-fluoro-1H-quinolin-2-one], the IC50 is reported as 8.5 nM. For Nc1c(-c2ccc(Cl)c3[nH]ncc23)c2cc(O[C@H]3C[C@H](F)C3)c(F)cc2[nH]c1=O [Compound A4, 3-Amino-4-(7-chloro-1H-indazol-4-yl)-7-fluoro-6-((1r,3r)-3-fluorocyclobutyl)oxy-1H-quinolin-2-one], the IC50 was 3.8 nM. N#C[C@H]1C[C@H](Oc2cc3c(-c4ccc(Cl)c5[nH]ncc45)c(N)c(=O)[nH]c3cc2F)C1 [Compound A5, (1r,3r)-3-[[3-Amino-4-(7-chloro-1H-indazol-4-yl)-7-fluoro-2-oxo-1H-quinolin-6-yl]oxy]cyclobutane-1-carbonitrile] gave an IC50 of 1.8 nM. For Nc1c(-c2ccc(Cl)c3[nH]ncc23)c2cc(OCCCF)c(F)cc2[nH]c1=O [Compound A6, 3-Amino-4-(7-chloro-1H-indazol-4-yl)-7-fluoro-6-(3-fluoropropoxy)-1H-quinolin-2-one], the IC50 was 3 nM. In the case of Nc1c(-c2ccc(Cl)c3[nH]ncc23)c2cc(OC3CCC3)c(F)cc2[nH]c1=O [Compound A7, 3-Amino-4-(7-chloro-1H-indazol-4-yl)-6-cyclobutyloxy-7-fluoro-1H-quinolin-2-one], the IC50 is reported as 4.4 nM. In the case of CC(C)Oc1cc2c(-c3ccc(Cl)c4[nH]ncc34)c(N)c(=O)[nH]c2cc1Cl [Compound A8, 3-Amino-7-chloro-4-(7-chloro-1H-indazol-4-yl)-6-propan-2-yloxy-1H-quinolin-2-one], the IC50 is reported as 23 nM. For Nc1c(-c2ccc(Cl)c3[nH]ncc23)c2cc(OCCC(F)F)c(Cl)cc2[nH]c1=O [Compound A9, 3-Amino-7-chloro-4-(7-chloro-1H-indazol-4-yl)-6-(3,3-difluoropropoxy)-1H-quinolin-2-one], the IC50 was 3.9 nM. For Nc1c(-c2ccc(Cl)c3[nH]ncc23)c2cc(OC3CCC3)c(Cl)cc2[nH]c1=O [Compound A10, 3-Amino-7-chloro-4-(7-chloro-1H-indazol-4-yl)-6-cyclobutyloxy-1H-quinolin-2-one], the IC50 was 4.3 nM. Nc1c(-c2ccc(Cl)c3[nH]ncc23)c2cc(O[C@H]3C[C@H](F)C3)c(Cl)cc2[nH]c1=O [Compound A11, 3-Amino-7-chloro-4-(7-chloro-1H-indazol-4-yl)-6-((1r,3r)-3-fluorocyclobutyl)oxy-1H-quinolin-2-one] gave an IC50 of 3.9 nM. In the case of Nc1c(-c2ccc(Cl)c3[nH]ncc23)c2cc(OCC3CC3)c(Cl)cc2[nH]c1=O [Compound A13, 3-Amino-7-chloro-4-(7-chloro-1H-indazol-4-yl)-6-(cyclopropylmethoxy)-1H-quinolin-2-one], the IC50 is reported as 18 nM. Nc1c(-c2ccc(Cl)c3[nH]ncc23)c2cc(OCCCF)c(Cl)cc2[nH]c1=O [Compound A14, 3-Amino-7-chloro-4-(7-chloro-1H-indazol-4-yl)-6-(3-fluoropropoxy)-1H-quinolin-2-one] showed an IC50 of 2.1 nM. Cc1nc2[nH]c(=O)c(N)c(-c3ccc(Cl)c4[nH]ncc34)c2cc1O[C@H]1C[C@H](F)C1 [Compound A15, 3-Amino-4-(7-chloro-1H-indazol-4-yl)-6-((1r,3r)-3-fluorocyclobutyl)oxy-7-methyl-1H-1,8-naphthyridin-2-one] was tested, and the IC50 was 13 nM. Cc1nc2[nH]c(=O)c(N)c(-c3ccc(Cl)c4[nH]ncc34)c2cc1O[C@H]1C[C@H](C#N)C1 [Compound A16, (1r,3r)-3-[[6-Amino-5-(7-chloro-1H-indazol-4-yl)-2-methyl-7-oxo-8H-1,8-naphthyridine-3-yl]oxy]cyclobutane-1-carbonitrile] gave an IC50 of 5 nM. Nc1c(-c2ccc(Cl)c3[nH]ncc23)c2cc(Cl)cc(Br)c2[nH]c1=O [Compound A17, 3-Amino-8-bromo-6-chloro-4-(7-chloro-1H-indazol-4-yl)-1H-quinolin-2-one] gave an IC50 of 27 nM. C#Cc1cc(Cl)cc2c(-c3ccc(Cl)c4[nH]ncc34)c(N)c(=O)[nH]c12 [Compound A18, 3-Amino-6-chloro-4-(7-chloro-1H-indazol-4-yl)-8-ethynyl-1H-quinolin-2-one] showed an IC50 of 87 nM. Compound CC(C)c1cc(Cl)cc2c(-c3ccc(Cl)c4[nH]ncc34)c(N)c(=O)[nH]c12 [Compound A19, 3-Amino-6-chloro-4-(7-chloro-1H-indazol-4-yl)-8-propan-2-yl-1H-quinolin-2-one] has an IC50 of 600 nM. In the case of Nc1c(-c2ccc(Cl)c3[nH]ncc23)c2cc(Cl)cc(Cl)c2[nH]c1=O [Compound A20, 3-Amino-6,8-dichloro-4-(7-chloro-1H-indazol-4-yl)-1H-quinolin-2-one], the IC50 is reported as 12 nM. With N#Cc1cc(Cl)cc2c(-c3ccc(Cl)c4[nH]ncc34)c(N)c(=O)[nH]c12 [Compound A21, 3-Amino-6-chloro-4-(7-chloro-1H-indazol-4-yl)-2-oxo-1H-quinoline-8-carbonitrile] the IC50 was 20 nM. With CCCc1cc(Cl)cc2c(-c3ccc(Cl)c4[nH]ncc34)c(N)c(=O)[nH]c12 [Compound A22, 3-Amino-6-chloro-4-(7-chloro-1H-indazol-4-yl)-8-propyl-1H-quinolin-2-one] the IC50 was 270 nM. C=Cc1cc(Cl)cc2c(-c3ccc(Cl)c4[nH]ncc34)c(N)c(=O)[nH]c12 [Compound A23, 3-Amino-6-chloro-4-(7-chloro-1H-indazol-4-yl)-8-ethenyl-1H-quinolin-2-one] gave an IC50 of 34 nM. Nc1c(-c2ccc(Cl)c3[nH]ncc23)c2cc(Cl)cc(C3CC3)c2[nH]c1=O [Compound A24, 3-Amino-6-chloro-4-(7-chloro-1H-indazol-4-yl)-8-cyclopropyl-1H-quinolin-2-one] gave an IC50 of 110 nM. With CCc1cc(Cl)cc2c(-c3ccc(Cl)c4[nH]ncc34)c(N)c(=O)[nH]c12 [Compound A25, 3-Amino-6-chloro-4-(7-chloro-1H-indazol-4-yl)-8-ethyl-1H-quinolin-2-one] the IC50 was 45 nM. Cc1cc(Cl)cc2c(-c3ccc(Cl)c4[nH]ncc34)c(N)c(=O)[nH]c12 [Compound A26, 3-Amino-6-chloro-4-(7-chloro-1H-indazol-4-yl)-8-methyl-1H-quinolin-2-one] showed an IC50 of 11 nM. Work on CCc1cc2[nH]c(=O)c(N)c(-c3ccc(Cl)c4[nH]ncc34)c2cc1Cl [Compound A28, 3-Amino-6-chloro-4-(7-chloro-1H-indazol-4-yl)-7-ethyl-1H-quinolin-2-one] yielded an IC50 of 47 nM. Compound N#Cc1cc2[nH]c(=O)c(N)c(-c3ccc(Cl)c4[nH]ncc34)c2cc1Cl [Compound A29, 3-Amino-6-chloro-4-(7-chloro-1H-indazol-4-yl)-2-oxo-1H-quinoline-7-carbonitrile] has an IC50 of 29 nM. For CC(=O)c1ccc2[nH]c(=O)c(N)c(-c3ccc(Cl)c4[nH]ncc34)c2c1 [Compound A31, 6-Acetyl-3-amino-4-(7-chloro-1H-indazol-4-yl)-1H-quinolin-2-one], the IC50 was 7.6 nM. For CC(O)c1ccc2[nH]c(=O)c(N)c(-c3ccc(Cl)c4[nH]ncc34)c2c1 (stereo not drawn) [Compound A32, 3-Amino-4-(7-chloro-1H-indazol-4-yl)-6-(1-hydroxyethyl)-1H-quinolin-2-one], the IC50 was 16 nM. Compound Nc1c(-c2ccc(Cl)c3[nH]ncc23)c2cc(C3CCNCC3)ccc2[nH]c1=O [Compound A33, 3-Amino-4-(7-chloro-1H-indazol-4-yl)-6-piperidin-4-yl-1H-quinolin-2-one; 2,2,2-trifluoroacetate] has an IC50 of 13 nM. Work on CC(C)N1CCC(c2ccc3[nH]c(=O)c(N)c(-c4ccc(Cl)c5[nH]ncc45)c3c2)CC1 [Compound A34, 3-Amino-4-(7-chloro-1H-indazol-4-yl)-6-(1-propan-2-ylpiperidin-4-yl)-1H-quinolin-2-one] yielded an IC50 of 26 nM. In the case of Nc1c(-c2ccc(Cl)c3[nH]ncc23)c2cc(C3CCN(C4CCC4)CC3)ccc2[nH]c1=O [Compound A35, 3-Amino-4-(7-chloro-1H-indazol-4-yl)-6-(1-cyclobutylpiperidin-4-yl)-1H-quinolin-2-one], the IC50 is reported as 19 nM. In the case of Nc1c(-c2ccc(Cl)c3[nH]ncc23)c2cc(C3CCN(C4COC4)CC3)ccc2[nH]c1=O [Compound A36, 3-Amino-4-(7-chloro-1H-indazol-4-yl)-6-[1-(oxetane-3-yl)piperidin-4-yl]-1H-quinolin-2-one], the IC50 is reported as 18 nM. Work on Nc1c(-c2ccc(Cl)c3[nH]ncc23)c2cc(C(=O)NC3CC3)ccc2[nH]c1=O [Compound A37, 3-Amino-4-(7-chloro-1H-indazol-4-yl)-N-cyclopropyl-2-oxo-1H-quinoline-6-carboxamide] yielded an IC50 of 5.6 nM.

From patent US20260062412A1, “NITROGEN-CONTAINING HETEROCYCLIC COMPOUND HAVING MYT1 INHIBITORY ACTIVITY” (CHUGAI SEIYAKU KABUSHIKI KAISHA, priority 2023, published 2026)
